Experimental data: patent US12037344B2, “NLRP3 modulators” (INNATE TUMOR IMMUNITY, INC., priority 2018, dated 2024)
Like-named read-outs stand apart in the source and are kept apart here.

Legend:
TLR8 = target: T1, TLR8 (Homo sapiens, UniProt Q9NR97); experiment: In vitro human TLR8 binding reporter assay (HEK-Blue, NF-kB/AP1-inducible SEAP); format: cell-based; settings: read-out: TLR8 Agonist EC50
T1 construct: human HEK-Blue cells co-expressing a TLR7 or TLR8 gene
T1 sequence (Q9NR97 27-1041): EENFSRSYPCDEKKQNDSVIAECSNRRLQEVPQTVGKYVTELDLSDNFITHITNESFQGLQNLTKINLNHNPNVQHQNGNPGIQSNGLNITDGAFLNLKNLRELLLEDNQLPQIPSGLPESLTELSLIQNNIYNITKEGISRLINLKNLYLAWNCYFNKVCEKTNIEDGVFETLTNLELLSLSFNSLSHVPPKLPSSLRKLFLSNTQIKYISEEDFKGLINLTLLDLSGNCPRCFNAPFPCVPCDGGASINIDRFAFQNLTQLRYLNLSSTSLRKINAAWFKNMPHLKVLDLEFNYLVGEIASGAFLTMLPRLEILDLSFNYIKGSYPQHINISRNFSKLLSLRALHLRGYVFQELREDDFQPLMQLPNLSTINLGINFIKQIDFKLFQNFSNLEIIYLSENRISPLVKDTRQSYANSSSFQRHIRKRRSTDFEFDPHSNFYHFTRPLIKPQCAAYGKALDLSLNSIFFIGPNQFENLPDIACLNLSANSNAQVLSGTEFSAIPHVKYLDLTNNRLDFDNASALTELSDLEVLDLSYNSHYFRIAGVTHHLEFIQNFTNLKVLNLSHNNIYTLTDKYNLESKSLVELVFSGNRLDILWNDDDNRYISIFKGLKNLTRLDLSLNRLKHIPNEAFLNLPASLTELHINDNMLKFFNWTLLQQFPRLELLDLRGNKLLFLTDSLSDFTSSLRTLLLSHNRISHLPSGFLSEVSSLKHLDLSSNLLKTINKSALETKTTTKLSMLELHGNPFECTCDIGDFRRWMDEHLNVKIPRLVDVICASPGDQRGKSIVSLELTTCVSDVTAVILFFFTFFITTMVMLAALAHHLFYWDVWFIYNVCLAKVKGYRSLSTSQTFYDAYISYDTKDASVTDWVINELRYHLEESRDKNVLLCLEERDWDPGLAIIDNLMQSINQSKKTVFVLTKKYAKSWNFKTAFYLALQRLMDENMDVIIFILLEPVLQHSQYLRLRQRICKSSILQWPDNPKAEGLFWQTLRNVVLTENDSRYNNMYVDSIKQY
In short: (§1)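 EC50s come from NF-kB/AP1-driven SEAP secretion in HEK-Blue cells expressing TLR7 or TLR8, measured with Quanti-Blue after an 18 h compound incubation. Maximal response is defined by a 50 μM reference standard.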

TLR7 = target: T2, TLR7 (Homo sapiens, UniProt Q9NYK1); experiment: In vitro human TLR7 binding reporter assay (HEK-Blue, NF-kB/AP1-inducible SEAP); format: cell-based; settings: read-out: TLR7 Agonist EC50
T2 construct: human HEK-Blue cells co-expressing a TLR7 or TLR8 gene
T2 sequence (Q9NYK1 27-1049): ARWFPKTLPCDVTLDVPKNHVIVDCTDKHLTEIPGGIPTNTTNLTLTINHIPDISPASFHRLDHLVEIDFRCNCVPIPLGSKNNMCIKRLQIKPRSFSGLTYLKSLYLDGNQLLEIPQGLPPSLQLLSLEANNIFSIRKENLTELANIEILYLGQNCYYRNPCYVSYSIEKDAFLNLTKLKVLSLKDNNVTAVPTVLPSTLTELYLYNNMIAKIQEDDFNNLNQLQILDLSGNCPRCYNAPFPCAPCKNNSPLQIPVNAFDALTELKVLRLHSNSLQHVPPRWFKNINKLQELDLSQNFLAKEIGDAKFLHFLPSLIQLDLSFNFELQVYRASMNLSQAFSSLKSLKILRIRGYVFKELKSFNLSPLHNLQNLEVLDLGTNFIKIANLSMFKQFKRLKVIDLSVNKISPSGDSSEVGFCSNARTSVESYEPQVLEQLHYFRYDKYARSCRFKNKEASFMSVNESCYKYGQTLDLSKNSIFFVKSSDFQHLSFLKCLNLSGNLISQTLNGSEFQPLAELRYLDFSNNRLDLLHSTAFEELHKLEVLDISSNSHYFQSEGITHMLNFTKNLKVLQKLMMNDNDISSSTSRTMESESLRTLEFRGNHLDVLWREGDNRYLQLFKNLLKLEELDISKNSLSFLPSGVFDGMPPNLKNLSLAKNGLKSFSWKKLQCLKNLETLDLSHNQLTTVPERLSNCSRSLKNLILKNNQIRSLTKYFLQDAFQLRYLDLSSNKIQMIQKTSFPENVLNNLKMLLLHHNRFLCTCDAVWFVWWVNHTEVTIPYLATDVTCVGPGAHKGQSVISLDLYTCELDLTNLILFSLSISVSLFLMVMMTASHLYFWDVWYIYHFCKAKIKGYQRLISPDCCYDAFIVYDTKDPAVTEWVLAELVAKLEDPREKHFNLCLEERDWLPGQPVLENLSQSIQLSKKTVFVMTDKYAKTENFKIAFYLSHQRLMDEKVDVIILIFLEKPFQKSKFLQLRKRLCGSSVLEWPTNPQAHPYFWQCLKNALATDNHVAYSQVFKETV
In short: as §1

THP-1 cells = experiment: Measurement of IL-1β production, hTRF protocol (second alternative procedure), THP-1 cells; format: cell-based, human; settings: read-out: NLRP3 hILIB EC50
In short: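 THP-1 cells differentiated overnight with 50 ng/ml PMA, then plated at 50,000 cells/well in RPMI with 2% FBS onto serial compound dilutions (top final concentration 10 μM) for 2 hours at 37° C. Supernatant IL-1β measured by hTRF (antibodies at 1:40, overnight at 4° C), read at 665/615 nm against a standard curve.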

[1] = Homo sapiens, THP-1, IL-1β production, human cells
[2] = Homo sapiens, THP-1, IL-1β production, human

Structure (SMILES) | EC50 (TLR8; activity range) | EC50 (TLR7; activity range) | EC50 (THP-1 cells; [1]) | EC50 (TLR8; activity range class) | EC50 (TLR7; activity range class) | EC50 (THP-1 cells; [2]) | EC50 (THP-1 cells; IL-1β production, human)
Nc1nc2cc(-c3cc[nH]n3)ccc2c2cn(CC(=O)NCC3CCOCC3)nc12 [Example 550] | > 100 µM | > 100 µM | 5.01 µM |  |  |  | 
CN(C)Cc1cc2c(N)nc3cc(-c4ccn[nH]4)ccc3c2[nH]1 [Example 439] | > 100 µM | > 100 µM | 0.32 µM |  |  |  | 
Nc1nc2cc(-c3ccn[nH]3)ccc2c2[nH]c(CCO)cc12 [Example 442] | > 100 µM | > 100 µM | 0.19 µM |  |  |  | 
CC(C)(C)OC(=O)Nc1nc(C(=O)NCCn2cc3c(n2)c(N)nc2cc(-c4cc[nH]n4)ccc23)cs1 [Example 80] |  |  |  | 20 to 100 µM | > 100 µM | 2.07 µM | 
Nc1nc2cc(-c3ccn[nH]3)ccc2c2nn(CCN3CCOCC3)cc12 [Example 260] |  |  |  | > 100 µM | > 100 µM | 5.76 µM | 
Nc1nc2cc(-c3ccn[nH]3)ccc2c2cn(CCNC(=O)c3ccccn3)cc12 [Example 286, N-[2-[4-amino-7-(1H-pyrazol-5-yl)-2H-pyrrolo[3,4-c]quinolin-2-yl]ethyl]pyridine-2-carboxamide] |  |  |  | > 100 µM | > 100 µM | 0.41 µM | 
CC(C)(O)CCn1ncc2c(N)nc3cc(-c4cc[nH]n4)ccc3c21 [Example 427] | > 100 µM | > 100 µM | 2.01 µM |  |  |  | 
CC(=O)NC(C)Cn1cc2c(N)nc3cc(-c4ccn[nH]4)ccc3c2n1 (single isomer, unassigned) [Example 300] |  |  |  | > 100 µM | > 100 µM |  | 7.36 µM
Cc1nc(C(=O)NCCn2cc3c(n2)c(N)nc2cc(-c4cc[nH]n4)ccc23)c(C)o1 [Example 68] |  |  |  | 20 to 100 µM | > 100 µM | 0.37 µM | 
Nc1nc2cc(-n3cccn3)ccc2c2cn(CCNC(=O)c3ccccn3)nc12 [Example 133, N-{2-[4-amino-7-(1H-pyrazol-1-yl)-2H-pyrazolo[3,4-c]quinolin-2-yl]ethyl}pyridine-2-carboxamide] |  |  |  | > 100 µM | > 100 µM | 0.3 µM | 
COCCS(=O)(=O)NCCCn1cc2c(N)nc3cc(-c4ccn[nH]4)ccc3c2n1 [Example 585] | > 100 µM | > 100 µM | 3.88 µM |  |  |  | 
CC(C(=O)NCC(F)F)n1cc2c(N)nc3cc(-c4ccn[nH]4)ccc3c2n1 (stereo not drawn) [Example 567] | > 100 µM | > 100 µM | 0.97 µM |  |  |  | 
CNC(=O)Cn1cc2c(N)nc3cc(-c4cc[nH]n4)ccc3c2n1 [Example 461] | > 100 µM | > 100 µM | 0.25 µM |  |  |  | 
COC1CCN(CCn2ncc3c(N)nc4cc(-c5cc[nH]n5)ccc4c32)C1 (stereo not drawn) [Example 434] | > 100 µM | > 100 µM | 4.35 µM |  |  |  | 
Nc1nc2cc(-c3cc[nH]n3)ccc2c2[nH]c(CN3[C@@H]4CC[C@H]3COC4)cc12 [Example 474] | > 100 µM | > 100 µM | 0.45 µM |  |  |  | 
Nc1nc2cc(-c3cc[nH]n3)ccc2c2cn(CC(=O)N3CC(F)C3)nc12 [Example 543] | > 100 µM | > 100 µM | 2.03 µM |  |  |  | 
CC(C)NC(=O)C(C)n1cc2c(N)nc3cc(-c4ccn[nH]4)ccc3c2n1 (stereo not drawn) [Example 569] | > 100 µM | > 100 µM | 0.94 µM |  |  |  | 

Structure (SMILES) | EC50 (TLR8; activity range) | EC50 (TLR7; activity range) | EC50 (THP-1 cells; [1]) | EC50 (TLR8; activity range class) | EC50 (TLR7; activity range class) | EC50 (THP-1 cells; [2]) | EC50 (THP-1 cells; IL-1β production, human)
CC(=O)N(C)CCn1cc2c(N)nc3cc(-c4ccn[nH]4)ccc3c2n1 [Example 259] |  |  |  | > 100 µM | > 100 µM | 2.29 µM | 
Nc1nc2cc(-c3cc[nH]n3)ccc2c2nn(C[C@@H]3CCC(=O)N3)cc12 [Example 384] |  |  |  | > 100 µM | > 100 µM | 0.88 µM | 
CC(C(=O)N1CC(O)C1)n1cc2c(N)nc3cc(-c4ccn[nH]4)ccc3c2n1 (stereo not drawn) [Example 579] | > 100 µM | > 100 µM | 4.47 µM |  |  |  | 
COCCCCn1ncc2c(N)nc3cc(-c4cc[nH]n4)ccc3c21 [Example 219] |  |  |  | > 100 µM | > 100 µM | 0.3 µM | 
COCCCn1cc2c(N)nc3cc(-c4cc[nH]n4)ccc3c2n1 [Example 303] |  |  |  | > 100 µM | > 100 µM | 0.21 µM | 
Cc1cc(Nc2cccc(C(=O)NCCn3cc4c(n3)c(N)nc3cc(-c5cc[nH]n5)ccc34)n2)n(C)n1 [Example 78] |  |  |  | > 100 µM | > 100 µM | 4.71 µM | 
N#CCn1cc2c(n1)c(N)nc1cc(-c3cc[nH]n3)ccc12 [Example 551] | > 100 µM | > 100 µM | 2.24 µM |  |  |  | 
Cc1csc(C(=O)NCCn2cc3c(n2)c(N)nc2cc(-c4cc[nH]n4)ccc23)n1 [Example 96] |  |  |  | 20 to 100 µM | > 100 µM | 0.31 µM | 
CC(C)(O)Cn1ncc2c(N)nc3cc(-c4cc[nH]n4)ccc3c21 [Example 432] | > 100 µM | > 100 µM | 3.19 µM |  |  |  | 
CC(C)NC(=O)C(C)Cn1cc2c(N)nc3cc(-c4cc[nH]n4)ccc3c2n1 (stereo not drawn) [Example 614] | > 100 µM | > 100 µM | 11.6 µM |  |  |  | 
CCN(CC)C(=O)C(C)n1cc2c(N)nc3cc(-c4ccn[nH]4)ccc3c2n1 (stereo not drawn) [Example 583] | > 100 µM | > 100 µM | 1.82 µM |  |  |  | 
Nc1nc2cc(-c3cc[nH]n3)ccc2c2[nH]c(CNCCO)cc12 [Example 494] | > 100 µM | > 100 µM | 1.89 µM |  |  |  | 
COC(=O)NCc1nc2c(N)nc3cc(-c4ccn[nH]4)ccc3c2s1 [Example 134, methyl N-[[4-amino-7-(1H-pyrazol-5-yl)-[1,3]thiazolo[4,5-c]quinolin-2-yl]methyl]carbamate] |  |  |  | > 100 µM | 20 to 100 µM | 0.37 µM | 
COCCNC(=O)Cn1cc2c(n1)c(N)nc1cc(-c3cc[nH]n3)ccc12 [Example 536] | > 100 µM | > 100 µM | 3.58 µM |  |  |  | 
NCc1cc2c(N)nc3cc(-n4cccn4)ccc3c2[nH]1 [Example 437] | > 100 µM | > 100 µM | 0.56 µM |  |  |  | 
CCOCCn1cc2c(N)nc3cc(-c4cc[nH]n4)ccc3c2n1 [Example 222] |  |  |  | > 100 µM | > 100 µM | 0.27 µM | 
Nc1nc2cc(-c3cc[nH]n3)ccc2c2[nH]c(CN3CC(F)(F)C3)cc12 [Example 477] | > 100 µM | > 100 µM | 0.27 µM |  |  |  | 
